Results on six molecules are retold here after patent US7572606B1 (Nereus Pharmaceuticals, Inc., priority 2005, dated 2009).

Where “and” joins values, the source holds several entries; their conditions need not be identical. Identical values can stand only once. Like-named read-outs stand apart in the source and are kept apart here. Peptide text beside a SMILES is read from it. * marks the point of attachment. Cbz = O=C(OCc1ccccc1)*

The subject of data set [1] is B16-F10. Put plainly: Cell growth inhibition, resazurin, 48 h. The conditions noted are these: Mus musculus, B16-F10, 48 h, B16-F10, 48 h drug exposure. Format: cell-based, mouse. On the procedure: (§1) RPMI 8226 (CCL-155), HT-29 (HTB-38), and B16-F10 (CRL-6475) cells were purchased from ATCC. RPMI 8226 cells were maintained in RPMI 1640 media supplemented with 10% (v/v) FBS, 2 mM L-glutamine, 1 mM sodium pyruvate and Penicillin/Streptomycin at 100 IU/ml and 100 μg/ml, respectively. HT-29 cells were maintained in McCoys 5A supplemented with 10% (v/v) FBS, 2 mM L-glutamine, 1 mM sodium pyruvate, 1% (v/v) non-essential amino acids, 10 mM HEPES and Penicillin/Streptomycin at 100 IU/ml and 100 μg/ml, respectively. B16-F10 cells were maintained in DMEM supplemented with 10% (v/v) FBS, 2 mM L-glutamine, 10 mM HEPES and Penicillin/Streptomycin at 100 IU/ml and 100 μg/ml, respectively.
(§2) RPMI 8226 cells were seeded at 2×10^4 cells/well in 90 μl RPMI media containing 10% (v/v) FBS or 1% (v/v) FBS into 96 well black-walled, clear-bottom tissue culture plates. […] Formulae II-16, II-17 and Formula II-18 were serially diluted in media containing 1% or 10% FBS and added in triplicate to the test wells. […] The final concentration of Formula II-18 ranged from 2 μM to 630 pM.
(The colour change of resazurin is a common sign of viable cells or microbes.)

Data set [2] relates to HT-29. Put plainly: Cell growth inhibition, resazurin, 48 h. Format: cell-based, human. The conditions noted are these: Homo sapiens, HT-29, 48 h, HT-29, 48 h drug exposure. On the procedure:
as §1, §2

For data set [3], the system named is MDA-MB-231. Put plainly: Cell growth inhibition, resazurin, 48 h. Format: cell-based, human. To be noted: Homo sapiens, MDA-MB-231, 48 h, MDA-MB-231, 48 h drug exposure.
The test system of data set [4] is NCI-H292. Put plainly: Cell growth inhibition, resazurin, 48 h. Format: cell-based, human. To be noted: Homo sapiens, NCI-H292, 48 h, NCI-H292, 48 h drug exposure.
For data set [5], the system named is OVCAR-3. Put plainly: Cell growth inhibition, resazurin, 48 h. Format: cell-based, human. The conditions noted are these: OVCAR-3, 48 h drug exposure.
For data set [6], the system named is RPMI 8226. Put plainly: Cell growth inhibition, resazurin, 48 h. How it is done: as §1, §2
Data set [7] deals with T1, trypsin-like activity of rabbit muscle 20S proteasome (Oryctolagus cuniculus, UniProt G1SWK8).
T1 construct: EC50 Trypsin-like; other: purified rabbit 20S proteasome, Boc-LRR-AMC; other: under the conditions tested
T1 sequence (G1SWK8 1-271): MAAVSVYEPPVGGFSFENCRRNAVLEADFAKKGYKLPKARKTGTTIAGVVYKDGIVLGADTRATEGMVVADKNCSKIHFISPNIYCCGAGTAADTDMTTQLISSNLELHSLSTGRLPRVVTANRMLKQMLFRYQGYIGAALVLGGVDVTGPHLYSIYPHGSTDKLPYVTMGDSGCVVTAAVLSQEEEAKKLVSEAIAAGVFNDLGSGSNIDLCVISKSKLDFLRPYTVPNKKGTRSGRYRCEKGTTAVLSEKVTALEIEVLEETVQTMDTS
Put plainly: In vitro inhibition of 20S proteasome, Boc-LRR-AMC. Format: biochemical. The conditions noted are these: for inhibition of the trypsin-like activity of the 20S proteasome: under the conditions tested.

In data set [8] the test system is NF-κB-mediated luciferase activity in HEK293 NF-κB/Luc cells. Put plainly: NF-κB-mediated luciferase reporter gene assay. Format: cell-based, human. To be noted: for EC50: 6 h TNF-α stimulation; for luciferase activity upon TNF-α stimulation: pretreatment of NF-κB/Luc 293 cells. How it is done:
The HEK293 NF-κB/luciferase reporter cell line is a derivative of the human embryonic kidney cell line (ATCC; CRL-1573) and carries a luciferase reporter gene under the regulation of 5×NF-κB binding sites. […] When performing the luciferase assay, the DMEM basal medium was replaced with phenol-red free DMEM basal medium and the G418 was omitted.
For NF-κB-mediated luciferase assays, HEK293 NF-κB/luciferase cells were seeded at 1.5×10^4 cells/well in 90 μl phenol-red free DMEM complete medium into Corning 3917 white opaque-bottom tissue culture plates. For Formulae II-2, II-4, II-5A and II-18, a 400 μM starting dilution was made in 100% DMSO and this dilution was used to generate an 8-point half log dilution series. […] For formula II-20, a 2.5 mM or 8 mM starting dilution was made in 100% DMSO and the final test concentrations ranged from 6.3 μM to 2.0 nM or 20 μM to 6.3 nM respectively. The plates were returned to the incubator for 1 hour. After 1 hr pretreatment, 10 μl of a 50 ng/ml TNF-α solution, prepared in the phenol-red free DMEM medium was added, and the plates were incubated for an additional 6 hours.
At the end of the TNF-α stimulation, 100 μl of Steady Lite HTS luciferase reagent (Packard Bioscience) was added to each well and the plates were left undisturbed for 10 min at room temperature before measuring the luciferase activity. The relative luciferase units (RLU) were measured by using a Fusion microplate fluorometer (Packard Bioscience).
NF-κB inducible luciferase activity was measured at 6 hours.
Background: In a reporter assay the amount or activity of a reporter protein is the signal.

Data set [9] concerns PC-3. The data set can be described thus: Cell growth inhibition, resazurin, 48 h. The conditions noted are these: Homo sapiens, PC-3, 48 h, PC-3, 48 h drug exposure.
Data set [10] concerns the target caspase-like (PGPH) activity of rabbit muscle 20S proteasome (Oryctolagus cuniculus, UniProt A0A5F9DQW2). The data set can be described thus: In vitro inhibition of 20S proteasome, Z-LLE-AMC. The conditions noted are these: read-out: EC50 Caspase-like (PGPH), purified rabbit 20S proteasome, Z-LLE-AMC.
Data set [11] concerns the target T2, chymotrypsin-like activity of rabbit muscle 20S proteasome (Oryctolagus cuniculus, UniProt G1T4Q9).
T2 sequence (G1T4Q9 1-263): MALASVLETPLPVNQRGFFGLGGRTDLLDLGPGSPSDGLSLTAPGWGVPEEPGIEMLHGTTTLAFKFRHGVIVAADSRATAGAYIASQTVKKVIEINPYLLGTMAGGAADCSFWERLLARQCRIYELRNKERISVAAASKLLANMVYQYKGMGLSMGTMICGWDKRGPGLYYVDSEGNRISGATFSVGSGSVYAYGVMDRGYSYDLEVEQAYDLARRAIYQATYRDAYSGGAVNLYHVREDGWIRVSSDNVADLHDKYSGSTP
The data set can be described thus: In vitro inhibition of 20S proteasome, suc-LLVY-AMC.

Data set [12] concerns LeTx-induced cytotoxicity of RAW264.7 cells. To be noted: cited from earlier work.
The nature of data set [13]: Stability in solution. Format: physicochemical. To be noted: converted to compound VI-1B, mixture 7:3. How it is done:
The reaction mixture was stirred at room temperature for about 3 hours. The solvent was evaporated from the reaction mixture to yield the compound of Formula II-48, which was purified by reversed phase HPLC using Ace 5u C18 column (150 mm×22 mm ID) with a solvent gradient of 10% to 70% H2O/Acetonitrile over 15 min, 70 to 100% Acetonitrile over 5 min, holding at 100% Acetonitrile for 4 min, at a flow rate of 14.5 ml/min. Diode array detector was used to monitor the purification process. Compound II-48 (10 mg) eluted as a pure compound at 8.255 min. […] Compound VI-1B: UV (Acetonitrile/H2O) λmax 235 (sh) nm; ESMS, m/z 585.2 (M+H)^+.

Data set [14] relates to U266. Put plainly: Cell growth inhibition, resazurin, 48 h. Format: cell-based, human. To be noted: Homo sapiens, U-266, 48 h, U266, 48 h drug exposure; read-out: EC50.
Data set [15] relates to MES-SA. The data set can be described thus: Cell growth inhibition, resazurin, 48 h. To be noted: 48 h drug exposure. On the procedure:
(§3) Concentrations ranging from 6.32 μM to 2 nM were tested for II-2 and II-4.

For data set [16], the system named is HL-60/MX2. Put plainly: Cell growth inhibition, resazurin, 48 h. The conditions noted are these: HL-60/MX2, 48 h drug exposure. How it is done: (§4) The DNA binding agent Mitoxantrone was included as a control, as HL-60/MX2 cells are reported to be resistant to this chemotherapeutic agent (Harker W. G. et al. 1989).
as §3

Data set [17] deals with HL-60. Put plainly: Cell growth inhibition, resazurin, 48 h. To be noted: HL-60, 48 h drug exposure. How it is done: as §4, §3
The subject of data set [18] is proteasome in packed whole blood lysate. The data set can be described thus: Dose response on PWBL lysates in vitro. It is filed as biochemical, mouse. To be noted: lysates of vehicle and 0.1 mg/kg Salinosporamide A treated animals. From the text:
Palayoor et al., Oncogene 18:7389-94 (1999).

Chain of caspase-like (PGPH) activity of rabbit muscle 20S proteasome (A0A5F9DQW2 1-212): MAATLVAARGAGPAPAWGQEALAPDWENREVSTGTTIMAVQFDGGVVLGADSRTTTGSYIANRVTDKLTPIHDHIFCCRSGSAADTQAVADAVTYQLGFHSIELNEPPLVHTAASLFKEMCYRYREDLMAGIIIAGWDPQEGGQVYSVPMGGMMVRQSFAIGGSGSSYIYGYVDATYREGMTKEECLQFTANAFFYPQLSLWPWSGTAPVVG

What is called EC50 is the concentration giving half of the maximal effect. As to `C[C@@]12OC(=O)[C@]1([C@@H](O)[C@@H]1C=CCCC1)NC(=O)[C@@H]2CCI` [Formula II-19], the EC50 was found to be 13 ± 1.9 nM in data set [1]; 11 ± 1.6 nM in data set [2]; 14 ± 3.2 nM in data set [3]; 27 ± 3.8 nM in data set [4]; 24 nM in [5] (Homo sapiens, OVCAR-3, 48 h); 20 nM in data set [5]. The half-maximal effective concentration (EC50) in data set [6] (RPMI 8226, 48 h drug exposure) was 6 nM and 7 nM; in [7] (purified rabbit 20S proteasome, Boc-LRR-AMC) it was 15 nM; in data set [8] (1 h pretreatment), 10 nM; in data set [8] (1 h pretreatment, listed as II-19) it was 10 nM; in data set [8] (Homo sapiens, HEK293, 1 h pretreatment), 7 nM; in data set [9] it was 29 ± 4 nM. In addition, the values for the concentration for a half-maximal effect (EC50) in [10] and in data set [11] were 739 nM and 2 to 11 nM, respectively. For the same molecule, the “inhibition of the trypsin-like activity of the 20S proteasome” value in data set [7] is “able to inhibit the trypsin-like activity”. In addition, in data set [8], the “luciferase activity upon TNF-α stimulation” value is “dose-dependent decrease of luciferase activity”.

Regarding `CC(C)C[C@@H](C=O)NC(=O)[C@H](CC(C)C)NC(=O)[C@H](CC(C)C)NC(=O)OCc1ccccc1` [MG132] (Cbz-Leu-Leu-Leu-aldehyde), the EC50 in data set [12] is 3000 nM.

Turning to `C[C@]1(O)[C@@H](CCCl)C(=O)N[C@]1(C(=O)SCC(NC(=O)CCC(N)C(=O)O)C(=O)NCC(=O)O)[C@@H](O)[C@@H]1C=CCCC1` (some centres unmarked) [Formula II-48], the stability in solution entry in data set [13] is on record as “unstable in solution”.

For the molecule `CC(=O)N[C@@H](CSC(=O)[C@]1([C@@H](O)C(C)C)NC(=O)[C@H](C)[C@@H]1O)C(=O)O` [Lactacystin], the half-maximal effective concentration (EC50) in data set [12] is 3000 nM.

For `C[C@@]12OC(=O)[C@]1([C@@H](O)[C@@H]1C=CCCC1)NC(=O)[C@@H]2CCBr` [Formula II-18], the half-maximal effective concentration (EC50) in data set [6] (Homo sapiens, RPMI-8226, 48 h, RPMI 8226, 48 h drug exposure) is 6.3 nM; in data set [6] (Homo sapiens, RPMI-8226, read-out: 1% FBS, EC50, Mean, RPMI 8226, media containing 1% FBS, mean of two), 14 nM; in data set [6] (Homo sapiens, RPMI-8226, read-out: 10% FBS, EC50, Mean, RPMI 8226, media containing 10% FBS, mean of two), 20 nM; in data set [14], 4.2 nM; in data set [15] it was 17 nM; in data set [15] (Homo sapiens, 48 h), 22 nM. The half-maximal effective concentration (EC50) was determined as 18 nM in data set [16]; 19 nM in data set [16] (Homo sapiens, HL60/MX2, 48 h); 23 nM in data set [17]; 27 nM in [17] (Homo sapiens, HL-60, 48 h); 11 nM in [8] (1 h pretreatment, listed as II-18, read-out: EC50); 11 nM in data set [8] (1 h pretreatment, read-out: EC50). Further, the EC50 in data set [8] (Homo sapiens, HEK293, 1 h pretreatment, read-out: EC50) was 9 nM; in data set [10] it was 286 nM and 213 nM; in data set [10] (listed as II-18) it was 286 nM and 213 nM. For the same molecule, the “% cytotoxicity” value in data set [6] (human, 48 h) is listed as 94, 94%. In data set [7], the “inhibition of the trypsin-like activity of the 20S proteasome” value is listed as “able to inhibit the trypsin-like activity”. For the same molecule, the “luciferase activity upon TNF-α stimulation” value in [8] is on record as “dose-dependent decrease of luciferase activity”.

As for `CC[C@H](C)[C@H](NC(=O)[C@H]([C@@H](C)CC)N(C)C(C)=O)C(=O)N[C@H](C(=O)N[C@@H](CC(C)C)C(=O)[C@@]1(C)CO1)[C@@H](C)O` [Epoxomicin], the “hydrolysis of the proteasome substrate in PWBL lysates” value in [18] is “dose dependent inhibition in the hydrolysis of the proteasome substrate”.
